Reference: US20230218255A1, “IMAGING OF MYELOMA BONE LESIONS” (Blue Earth Diagnostics Limited, priority 2022, published 2023)

Tested on: myeloma bone lesion
Assay: [^18F]-FACBC PET and fused PET/CT imaging of the lumbar vertebrae
Type: in vivo
Conditions: coronal PET and PET/CT of lumbar vertebrae; PET acquisition started 5 minutes after administration of 319 MBq
Procedure: In an exemplary method, lesion [^18F]-FACBC uptake is visually compared to [^18F]-FACBC activity in the bone marrow. [^18F]-FACBC uptake higher than the bone marrow is considered as suspicious for myeloma. [^18F]-FACBC uptake similar or less than the bone marrow is considered as non-suspicious for myeloma.
FIG. 1: Coronal [^18F]-FACBC PET (left) and fused PET/CT (right) images of the lumbar vertebrae. […] The PET scan acquisition was started 5 minutes after administration of 319 MBq of [^18F]-FACBC.
In an aspect of the present disclosure, there is provided a method of diagnosing myeloma bone lesions in a subject comprising the steps of: • (a) administering a detectable amount of [^18F]-FACBC to the subject; • (b) acquiring one or more positron emission tomography (PET) scan images of the subject for a region of the subject that includes a potential myeloma bone lesion; and • (c) comparing [^18F]-FACBC uptake in the potential lesion against [^18F]-FACBC uptake in the bone marrow of the region of the subject; wherein lesion [^18F]-FACBC uptake which is higher than bone marrow [^18F]-FACBC uptake is indicative of the presence of myeloma bone lesions.

[^18F]-FACBC uptake in area diagnosed as a lesion compared with surrounding bone marrow: higher than the surrounding bone marrow
Compound: N[C@]1(C(=O)O)C[C@@H](F)C1 [[^18F]-FACBC, anti-1-amino-3-^18F-fluorocyclobutane-1-carboxylic acid]
